For assay [1], the target named is T1, AChE from Electrophorus electricus (eelAChE) type VI-S (Electrophorus electricus, UniProt O42275).
T1 construct: purchased Sigma-Aldrich type VI-S
The assay can be described thus: biochemical. The conditions noted are these: for mechanism of inhibition: double-reciprocal (Lineweaver-Burk) plots; for IC50 / Ki: eelAChE-ICER; for IC50: 20 μL ACh stock 500 μM in 100 μL reaction mixture, non-linear regression; for Ki: ACh 10 to 150 μM, inhibitor 0, 10, 50 and 75 μM, Lineweaver-Burk replot, read-out: Ki (steady-state inhibition constant); for inhibition: pH 8, 10 μL of 1.0 mM compound stock in 100 μL reaction mixture, read-out: % Inhibition eelAChE-ICER. How it is done:
AChE from Electrophorus electricus (type VI-S) was immobilized in a fused-silica capillary tube (eelAChE-ICER) according to a previously reported protocol (Vanzolini et al., [2013]). An enzyme solution containing 2 units/mL eelAChE was used in the immobilization procedure. The LC-MS system was set up for the eelAChE-ICER as previously described (Vanzolini et al., [2013]). The mobile phase (15 mM ammonium acetate solution, pH 8.0) was infused by pump 1 at a flow rate of 50 μL/min and pump 2 delivered acetonitrile after the eelAChE-ICER at a flow rate of 50 μL/min. IT-MS parameters were: 3,713 V capillary voltage, 500 V end plate voltage, […] drying gas, 300°C drying temperature and 30 psi nebulizer. In addition, ACh ([M+H]^+ m/z 146) and Ch ([M+H]^+ m/z 104), were analyzed by MS operating in the manual MS^n mode under positive ionization (scan 50–550 m/z). Enzymatic activity was quantified using a Ch standard external calibration curve prepared in 15 mM ammonium acetate solution, pH 8.0 with the final concentration ranging from 5 to 350 μM. An aliquot (10 μL) of each solution was injected in triplicate into the system using an empty fused silica capillary. The calibration curve was obtained by plotting the Ch [M+H]^+ m/z 104 area against the injected Ch concentration.
Stock solutions of each compound were prepared in methanol at 1.0 mM. The enzymatic activity of eelAChE-ICER was measured in the presence and absence of each compound. Reactions mixtures were prepared by mixing 20 μL of ACh stock solution (350 μM, in 15mM ammonium acetate solution, pH 5.0) with 10 μL of methanol or stock solution of compounds (1.0 mM) and 70 μL ammonium acetate solution (15mM, pH 8.0). Each reaction mixture (10 μL) was injected into the LC-MS system. The percentage of inhibition (%I) was calculated by comparing the product peak area in the presence of tested compound with positive control (absence of inhibitors).
Final volumes were completed with 70 μL ammonium acetate solution (15mM, pH 8.0) and each reaction mixture (10 μL) was injected into the LC-MS system. The inhibition curve was obtained for each sample by plotting the percentage of inhibition vs. each corresponding inhibitor concentration, and the IC50 values were achieved by non-linear regression analysis using GraphPad Prism 5 software.
For this purpose, the eelAChE-ICER activity was evaluated under different concentrations of ACh (10 to 150 μM) and at the fixed concentration of derivative 1a and 1b (0, 10, 50, and 75 μM). Lineweaver-Burk plots were used to determine the action mechanism for the inhibitors.
A linear replot was obtained, and the division quotient between the linear and angular coefficients provided the Ki values.

Assay [2] has as its system AChE. Details: method as in Loizzo et al., 2008. Conditions: AChE inhibition; ref Loizzo et al., 2008; cited from earlier work.
[3] abbreviates: 20 μL ACh stock 350 μM, ammonium acetate 15 mM pH 8.0.

T1 sequence (O42275 24-633): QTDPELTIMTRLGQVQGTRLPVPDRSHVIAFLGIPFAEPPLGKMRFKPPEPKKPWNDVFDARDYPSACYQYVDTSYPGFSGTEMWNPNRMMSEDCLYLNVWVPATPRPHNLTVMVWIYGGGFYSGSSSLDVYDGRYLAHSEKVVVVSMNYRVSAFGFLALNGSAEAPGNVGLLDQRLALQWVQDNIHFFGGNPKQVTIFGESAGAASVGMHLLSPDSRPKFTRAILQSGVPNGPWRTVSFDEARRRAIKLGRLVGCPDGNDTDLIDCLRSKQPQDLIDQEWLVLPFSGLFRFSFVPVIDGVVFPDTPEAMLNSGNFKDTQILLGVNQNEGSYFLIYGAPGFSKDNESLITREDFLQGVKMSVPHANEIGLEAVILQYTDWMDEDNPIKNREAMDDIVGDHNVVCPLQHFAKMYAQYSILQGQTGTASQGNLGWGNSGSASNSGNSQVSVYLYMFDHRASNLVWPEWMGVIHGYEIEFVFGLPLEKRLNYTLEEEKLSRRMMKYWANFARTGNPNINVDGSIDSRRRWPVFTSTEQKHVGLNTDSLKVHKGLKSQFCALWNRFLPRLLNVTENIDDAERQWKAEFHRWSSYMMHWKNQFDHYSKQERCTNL

As a reminder, the IC50 is the concentration needed to halve the response being measured. One may read the Ki as the dissociation constant of the complex between target and ligand, obtained from inhibition or displacement. A word on the inhibition: it is the change of the read-out against control, counted positive when it falls. For the compound `COc1cc2c(cc1O)[C@@H]1Cc3ccc(O)c(OC)c3C[N@+]1(Cc1ccccc1)CC2` [1a, (7R,13aS)-7-benzylstepholidine], in assay [1], the mechanism of inhibition entry is reported as “non-competitive”, the IC50 came to 40.6 ± 1 µM and the Ki was determined as 11.6 µM. Further, in assay [1] (setting [3]), the inhibition came out at 90.1 ± 2.04%.

With `COc1cc2c(cc1O)[C@@H]1Cc3ccc(O)c(OC)c3C[N@@+]1(Cc1ccccc1)CC2` [1b, (7S,13aS)-7-benzylstepholidine], in assay [1], the mechanism of inhibition entry is listed as “non-competitive”, the IC50 was 51.9 ± 1 µM and the Ki amounted to 4.7 µM. Further, the inhibition in assay [1] (setting [3]) came to 90.5 ± 2.48%.

In the case of `COc1cc2c(cc1OCc1ccccc1)[C@@H]1Cc3ccc(O)c(OC)c3CN1CC2` [1c, (S)-2-O-benzylstepholidine], the inhibition in assay [1] (setting [3]) came out at 35.2 ± 5.02%.

Regarding `COc1cc2c(cc1O)[C@@H]1Cc3ccc(OCc4ccccc4)c(OC)c3CN1CC2` [1d, (S)-10-O-benzylstepholidine], the inhibition in assay [1] (setting [3]) is 46.3 ± 5.45%.

Regarding `COc1cc2c(cc1OCc1ccccc1)[C@@H]1Cc3ccc(OCc4ccccc4)c(OC)c3CN1CC2` [1e, (S)-O, O-dibenzylstepholidine], in assay [1] (setting [3]), the inhibition amounted to 43.6 ± 2.54%.

Turning to `COc1cc2c(cc1O)C1Cc3ccc(O)c(OC)c3C[N+]1(C)CC2` (stereo not shown) [N-methyl stepholidine], the IC50 in assay [2] was 31.3 µM.

Consider `COc1cc2c(cc1O)[C@@H]1Cc3ccc(O)c(OC)c3CN1CC2` [Stepholidine, stepholidine, reference compound], for which, in assay [1] (10 μL of 1.0 mM compound stock in 100 μL reaction mixture, 20 μL ACh stock 350 μM, ammonium acetate 15 mM pH 8.0), the “% Inhibition eelAChE-ICER” value was determined as 40.2 ± 1.65%. Besides, in assay [1] (setting [3]), the inhibition was below 50%. In assay [2], the IC50 was above 100 µM.

`COc1cc2c(cc1O)-c1cc3ccc(O)c(OC)c3c[n+]1CC2` [stepharanine]: the IC50 in assay [2] was 14.1 µM.

(Values after publication PMC6760013, “Synthesis and Inhibition Evaluation of New Benzyltetrahydroprotoberberine Alkaloids Designed as Acetylcholinesterase Inhibitors” (Frontiers in Chemistry, 2019).)
